Tests used:
[1] = molecular target: Death-associated protein kinase 2 (Homo sapiens) (UniProt Q9UIK4); assay: Residual activity of DAPK2 at 0.1 uM by microplate scintillation counting
[2] = molecular target: G protein-coupled receptor kinase 5 (Homo sapiens) (UniProt P34947); assay: Residual activity of GRK5 at 0.1 uM by microplate scintillation counting
[3] = molecular target: Mitogen-activated protein kinase 14 (Homo sapiens) (UniProt Q16539); assay: Residual activity of p38alpha at 1 uM by microplate scintillation counting
[4] = molecular target: T1, Tyrosine-protein kinase Tec (Homo sapiens) (UniProt P42680); assay: Residual activity of TEC at 1 uM by microplate scintillation counting
T1 sequence (whole entry): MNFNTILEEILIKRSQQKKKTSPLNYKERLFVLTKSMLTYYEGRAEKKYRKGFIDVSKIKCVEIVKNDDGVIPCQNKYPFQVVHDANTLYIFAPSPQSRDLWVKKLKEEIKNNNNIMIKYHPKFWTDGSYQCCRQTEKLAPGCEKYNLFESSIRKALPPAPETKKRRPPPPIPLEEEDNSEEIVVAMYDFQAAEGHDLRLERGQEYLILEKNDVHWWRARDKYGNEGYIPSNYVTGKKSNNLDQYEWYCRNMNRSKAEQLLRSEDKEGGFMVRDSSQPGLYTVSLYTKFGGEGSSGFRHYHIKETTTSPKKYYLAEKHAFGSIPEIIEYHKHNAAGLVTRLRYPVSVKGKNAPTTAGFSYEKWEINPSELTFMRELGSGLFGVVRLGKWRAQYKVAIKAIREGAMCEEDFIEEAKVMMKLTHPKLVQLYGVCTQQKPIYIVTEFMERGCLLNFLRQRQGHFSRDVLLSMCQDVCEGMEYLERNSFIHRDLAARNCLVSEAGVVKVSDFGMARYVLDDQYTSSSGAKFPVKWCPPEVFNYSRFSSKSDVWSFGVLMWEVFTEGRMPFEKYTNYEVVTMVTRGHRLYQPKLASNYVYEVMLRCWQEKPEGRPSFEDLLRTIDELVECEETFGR

[5] = molecular target: Vascular endothelial growth factor receptor 1 (Homo sapiens) (UniProt P17948); assay: Residual activity of VEGFR1 at 1 uM by microplate scintillation counting
[6] = molecular target: T2, Serine/threonine-protein kinase Chk1 (Homo sapiens) (UniProt O14757); assay: Residual activity of CHK1 at 10 uM by microplate scintillation counting
T2 sequence (whole entry): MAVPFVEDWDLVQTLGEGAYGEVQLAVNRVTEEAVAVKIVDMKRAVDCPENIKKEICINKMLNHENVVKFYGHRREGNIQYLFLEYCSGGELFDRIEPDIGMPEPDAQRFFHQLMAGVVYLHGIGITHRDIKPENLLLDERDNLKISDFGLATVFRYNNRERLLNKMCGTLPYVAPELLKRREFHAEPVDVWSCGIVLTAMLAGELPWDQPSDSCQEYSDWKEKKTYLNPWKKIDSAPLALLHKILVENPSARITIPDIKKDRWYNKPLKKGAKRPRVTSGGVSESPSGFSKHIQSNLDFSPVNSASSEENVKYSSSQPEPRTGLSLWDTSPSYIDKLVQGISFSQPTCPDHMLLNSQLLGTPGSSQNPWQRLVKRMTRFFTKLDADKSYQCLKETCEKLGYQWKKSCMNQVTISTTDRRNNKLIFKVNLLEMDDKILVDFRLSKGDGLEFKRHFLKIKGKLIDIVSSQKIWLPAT

[7] = molecular target: Tyrosine-protein kinase FRK (Homo sapiens) (UniProt P42685); assay: Residual activity of FRK at 10 uM by microplate scintillation counting
[8] = molecular target: T3, Eukaryotic elongation factor 2 kinase (Homo sapiens) (UniProt O00418); assay: Residual activity of EEF2K at 0.1 uM by microplate scintillation counting
T3 sequence (whole entry): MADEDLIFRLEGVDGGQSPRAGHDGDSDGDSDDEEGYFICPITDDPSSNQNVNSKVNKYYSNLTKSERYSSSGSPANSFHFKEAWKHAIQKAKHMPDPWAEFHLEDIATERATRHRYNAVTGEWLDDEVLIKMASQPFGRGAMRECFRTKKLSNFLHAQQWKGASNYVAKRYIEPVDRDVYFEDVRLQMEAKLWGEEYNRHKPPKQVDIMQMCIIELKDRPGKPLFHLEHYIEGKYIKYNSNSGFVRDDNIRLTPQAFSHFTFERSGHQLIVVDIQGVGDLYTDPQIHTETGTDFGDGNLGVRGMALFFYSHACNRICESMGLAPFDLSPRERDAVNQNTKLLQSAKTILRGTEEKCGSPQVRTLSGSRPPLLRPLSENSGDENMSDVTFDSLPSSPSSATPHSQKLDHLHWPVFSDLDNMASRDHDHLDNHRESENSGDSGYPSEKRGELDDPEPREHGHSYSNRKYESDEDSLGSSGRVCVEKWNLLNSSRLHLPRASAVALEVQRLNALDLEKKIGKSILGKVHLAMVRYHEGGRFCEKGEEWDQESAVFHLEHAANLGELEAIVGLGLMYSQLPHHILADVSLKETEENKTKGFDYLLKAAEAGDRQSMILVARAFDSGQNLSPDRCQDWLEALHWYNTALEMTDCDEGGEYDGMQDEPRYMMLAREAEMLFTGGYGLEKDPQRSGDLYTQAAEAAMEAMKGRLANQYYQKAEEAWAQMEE

[9] = Residual activity of PKA at 0.1 uM by microplate scintillation counting
[10] = molecular target: T4, Serine/threonine-protein kinase TBK1 (Homo sapiens) (UniProt Q9UHD2); assay: Residual activity of TBK1 at 10 uM by microplate scintillation counting
T4 sequence (whole entry): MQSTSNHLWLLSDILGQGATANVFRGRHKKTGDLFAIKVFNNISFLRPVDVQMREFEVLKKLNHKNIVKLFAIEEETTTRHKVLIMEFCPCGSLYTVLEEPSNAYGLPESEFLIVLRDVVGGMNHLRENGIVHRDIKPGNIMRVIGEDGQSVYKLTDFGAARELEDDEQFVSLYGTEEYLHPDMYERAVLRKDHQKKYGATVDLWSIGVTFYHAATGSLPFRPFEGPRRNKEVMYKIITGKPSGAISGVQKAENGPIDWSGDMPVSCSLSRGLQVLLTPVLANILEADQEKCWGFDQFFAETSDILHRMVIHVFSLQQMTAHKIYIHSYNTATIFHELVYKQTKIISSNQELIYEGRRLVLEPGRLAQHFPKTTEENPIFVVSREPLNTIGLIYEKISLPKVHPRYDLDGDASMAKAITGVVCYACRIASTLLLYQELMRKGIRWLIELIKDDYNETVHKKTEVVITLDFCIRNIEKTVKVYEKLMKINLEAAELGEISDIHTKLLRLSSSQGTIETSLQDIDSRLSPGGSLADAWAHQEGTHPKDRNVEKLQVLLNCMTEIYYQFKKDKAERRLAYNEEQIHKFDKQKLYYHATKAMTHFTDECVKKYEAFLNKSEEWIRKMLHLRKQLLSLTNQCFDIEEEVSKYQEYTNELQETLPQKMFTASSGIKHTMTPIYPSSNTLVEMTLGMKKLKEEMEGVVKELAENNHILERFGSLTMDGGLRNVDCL

Chain of Vascular endothelial growth factor receptor 1 (Homo sapiens) (P17948 whole entry): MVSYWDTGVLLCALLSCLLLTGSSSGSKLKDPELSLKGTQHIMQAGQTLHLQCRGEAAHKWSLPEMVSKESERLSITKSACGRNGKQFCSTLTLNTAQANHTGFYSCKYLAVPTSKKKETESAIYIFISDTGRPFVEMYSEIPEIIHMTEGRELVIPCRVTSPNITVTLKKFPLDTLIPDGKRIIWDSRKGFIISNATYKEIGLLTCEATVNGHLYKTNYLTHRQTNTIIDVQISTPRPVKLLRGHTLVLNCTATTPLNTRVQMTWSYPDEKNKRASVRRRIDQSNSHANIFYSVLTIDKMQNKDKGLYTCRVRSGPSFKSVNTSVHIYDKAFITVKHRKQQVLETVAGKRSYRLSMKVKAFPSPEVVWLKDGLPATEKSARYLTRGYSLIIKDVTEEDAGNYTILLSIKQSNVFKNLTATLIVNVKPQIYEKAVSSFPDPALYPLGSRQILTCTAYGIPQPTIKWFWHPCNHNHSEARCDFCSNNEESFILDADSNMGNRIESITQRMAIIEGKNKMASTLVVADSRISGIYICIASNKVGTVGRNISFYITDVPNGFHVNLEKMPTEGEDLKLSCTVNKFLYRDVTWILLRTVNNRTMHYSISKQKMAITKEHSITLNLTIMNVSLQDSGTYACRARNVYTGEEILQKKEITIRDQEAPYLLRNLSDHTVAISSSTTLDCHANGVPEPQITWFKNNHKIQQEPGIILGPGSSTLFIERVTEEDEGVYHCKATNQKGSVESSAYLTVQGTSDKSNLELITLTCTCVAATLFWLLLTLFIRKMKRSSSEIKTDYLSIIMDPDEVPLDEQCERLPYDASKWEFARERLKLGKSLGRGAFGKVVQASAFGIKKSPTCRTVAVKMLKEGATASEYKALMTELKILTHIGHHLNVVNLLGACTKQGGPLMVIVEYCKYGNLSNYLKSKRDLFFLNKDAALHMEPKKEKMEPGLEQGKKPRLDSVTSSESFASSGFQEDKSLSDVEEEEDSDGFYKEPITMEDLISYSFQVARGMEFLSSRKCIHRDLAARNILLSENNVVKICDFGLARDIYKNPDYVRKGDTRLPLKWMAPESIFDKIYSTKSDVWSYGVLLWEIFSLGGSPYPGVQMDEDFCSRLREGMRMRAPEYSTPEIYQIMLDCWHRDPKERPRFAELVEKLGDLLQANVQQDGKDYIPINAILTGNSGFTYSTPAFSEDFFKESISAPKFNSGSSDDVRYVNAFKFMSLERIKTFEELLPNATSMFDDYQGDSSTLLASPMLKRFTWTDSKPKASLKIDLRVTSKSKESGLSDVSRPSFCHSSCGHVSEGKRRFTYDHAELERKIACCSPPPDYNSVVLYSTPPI
Chain of Death-associated protein kinase 2 (Homo sapiens) (Q9UIK4 whole entry, looked up): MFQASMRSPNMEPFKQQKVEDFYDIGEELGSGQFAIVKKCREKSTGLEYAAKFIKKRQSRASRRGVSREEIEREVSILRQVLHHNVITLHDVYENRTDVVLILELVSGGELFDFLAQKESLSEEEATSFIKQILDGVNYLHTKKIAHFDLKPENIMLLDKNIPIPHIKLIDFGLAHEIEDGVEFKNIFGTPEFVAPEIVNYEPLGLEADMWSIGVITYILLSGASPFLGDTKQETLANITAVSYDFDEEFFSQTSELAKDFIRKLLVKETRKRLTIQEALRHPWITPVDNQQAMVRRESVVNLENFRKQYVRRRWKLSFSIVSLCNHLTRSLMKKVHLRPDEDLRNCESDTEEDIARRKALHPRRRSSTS
Chain of Tyrosine-protein kinase FRK (Homo sapiens) (P42685 whole entry): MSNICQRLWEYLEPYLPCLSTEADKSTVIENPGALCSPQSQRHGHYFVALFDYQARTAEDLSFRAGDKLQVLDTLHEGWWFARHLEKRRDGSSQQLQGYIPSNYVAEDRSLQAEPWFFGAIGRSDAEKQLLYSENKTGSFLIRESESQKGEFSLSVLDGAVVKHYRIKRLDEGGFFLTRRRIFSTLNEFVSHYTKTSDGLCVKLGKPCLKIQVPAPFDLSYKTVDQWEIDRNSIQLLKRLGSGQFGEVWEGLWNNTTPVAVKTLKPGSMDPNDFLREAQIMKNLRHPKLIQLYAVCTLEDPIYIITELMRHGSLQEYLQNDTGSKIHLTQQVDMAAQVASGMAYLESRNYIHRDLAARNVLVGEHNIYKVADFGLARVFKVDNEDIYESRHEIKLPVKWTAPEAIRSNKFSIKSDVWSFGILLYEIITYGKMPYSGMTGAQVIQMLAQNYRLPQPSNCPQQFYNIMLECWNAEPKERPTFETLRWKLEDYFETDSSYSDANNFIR
Chain of G protein-coupled receptor kinase 5 (Homo sapiens) (P34947 whole entry, looked up): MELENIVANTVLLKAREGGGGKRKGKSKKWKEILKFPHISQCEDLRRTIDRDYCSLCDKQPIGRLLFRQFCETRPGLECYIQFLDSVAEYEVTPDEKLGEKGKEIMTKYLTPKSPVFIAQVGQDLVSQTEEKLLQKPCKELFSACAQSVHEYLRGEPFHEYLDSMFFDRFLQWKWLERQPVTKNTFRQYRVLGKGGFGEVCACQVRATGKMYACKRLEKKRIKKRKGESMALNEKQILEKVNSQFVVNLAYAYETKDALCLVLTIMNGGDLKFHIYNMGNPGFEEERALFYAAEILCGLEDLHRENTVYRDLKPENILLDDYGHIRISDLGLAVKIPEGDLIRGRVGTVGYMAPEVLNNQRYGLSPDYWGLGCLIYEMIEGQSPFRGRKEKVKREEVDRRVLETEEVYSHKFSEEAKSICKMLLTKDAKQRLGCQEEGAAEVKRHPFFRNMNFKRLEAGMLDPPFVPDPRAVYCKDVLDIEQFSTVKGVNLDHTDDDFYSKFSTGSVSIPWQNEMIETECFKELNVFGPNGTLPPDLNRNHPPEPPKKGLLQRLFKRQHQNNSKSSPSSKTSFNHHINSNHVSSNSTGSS
Chain of Mitogen-activated protein kinase 14 (Homo sapiens) (Q16539 whole entry): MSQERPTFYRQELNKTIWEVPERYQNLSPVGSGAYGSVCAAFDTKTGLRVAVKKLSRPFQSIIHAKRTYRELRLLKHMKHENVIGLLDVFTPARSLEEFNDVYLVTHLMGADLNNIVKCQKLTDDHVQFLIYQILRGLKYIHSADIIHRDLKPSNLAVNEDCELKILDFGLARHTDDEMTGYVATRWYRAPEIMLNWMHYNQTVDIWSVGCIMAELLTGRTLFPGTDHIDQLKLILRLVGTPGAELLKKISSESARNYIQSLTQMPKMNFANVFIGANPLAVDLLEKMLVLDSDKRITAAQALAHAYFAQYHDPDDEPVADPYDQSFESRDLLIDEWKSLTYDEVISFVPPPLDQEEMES

Row | SMILES | residual activity [1] [%] | residual activity [2] [%] | residual activity [3] [%] | residual activity [4] [%] | residual activity [5] [%] | residual activity [6] [%] | residual activity [7] [%] | residual activity [8] [%] | residual activity [9] [%] | residual activity [10] [%]
1 | COc1cc2c(Oc3ccc(-c4nc5ccccc5s4)cc3)ncnc2cc1OCCCN1CCN(C)CC1 | 81 | 87 | 145 | 96 | 75 | 131 | 61 | 92 | 89 | 171
2 | COc1cc2c(Oc3ccc(-c4nc5ccccc5s4)cc3F)ncnc2cc1OCCCN1CCN(C)CC1 | 85 | 86 | 148 | 90 | 74 | 142 | 24 | 88 | 98 | 141
3 | COc1cc2c(Oc3ccc(-c4nc5ccccc5s4)cc3)ncnc2cc1OCCCN1CCCC1 | 96 | 86 | 143 | 93 | 74 | 101 | 71 | 91 | 95 | 143

Reference: ChEMBL document CHEMBL1152560, “Substituted 2-arylbenzothiazoles as kinase inhibitors: hit-to-lead optimization” (Bioorg Med Chem, 2009)
